Target: T1, PAF specific receptor binding site (human platelet membranes) (Homo sapiens, UniProt P25105)
T1 construct: platelet membranes at a drug concentration of 3 nM; from tissue; host or cells: human platelet plasma membranes
Test: Inhibition of [3H]N-methylcarbamoyl-PAF binding to human platelet membranes
Conditions: drug concentration of 3 nM, trans configuration
Experimental: The ability of a compound of formula (I) to inhibit the PAF binding to its specific receptor binding site on rabbit or human platelet or PMN plasma membranes was measured by a recently developed assay.
The inhibition of ^3 [H]-PAF or ^3 [H]-N-methyl carbamoyl-TAF binding to the human or rabbit platelet or PMN plasma membrane by a PAF antagonist of formula (I) was determined by a method employing isotopic labeling and filtration techniques. Generally, a series of Tris-buffered solutions of the selected antagonist at predetermined concentrations were prepared. Each of these solutions contains 1 pmole of ^3 H-PAF, a known amount of the test antagonist, and a sufficient amount of the pH 7.5 Tris-buffer solution (10mM Tris, 0.25% bovine serum albumin, and 150 mM NaCl per ml water) to make the final volume of 1 ml. After adding into a set of test tubes each with 100 μg of the platelet plasma membrane suspension (S. B. Hwang, et. al., Biochemistry, Vol. 22 pp. 4756-4763, 1983) and one of the Tris-buffer solutions described above, the resulting mixture in each test tube was incubated at 0° C. for about one hours or until the reaction was complete. Two control samples, one of which (C1) contains all the ingredients described above except the antagonist and the other (C2) contains C1 plus a 100-fold excess of unlabeled PAF, were also prepared and incubated simultaneously with the test samples. After the incubation was completed, the contents of each test tube were filtered under vacuo through a Whatman GF/C fiberglass filter and the residue washed rapidly several times with a total of 20 ml cold (0°-5° C.) Tris-buffer solution. Each washed residue was then suspended in 10 ml scintillation solution (Aquasol 2, New England Nuclear, Conn.) and the radioactivity was counted in a Packard Tri-Carb 460CD Liquid Scintillation System. Defining the counts from a test sample as "Total binding with antagonist"; the counts from the control sample C1, as "Total binding C1 "; and the counts from the control sample C2 as "non-specific binding C2 ", the percent inhibition of each test antagonist can be determined by the following equations: [formula]

T1 sequence (P25105 whole entry): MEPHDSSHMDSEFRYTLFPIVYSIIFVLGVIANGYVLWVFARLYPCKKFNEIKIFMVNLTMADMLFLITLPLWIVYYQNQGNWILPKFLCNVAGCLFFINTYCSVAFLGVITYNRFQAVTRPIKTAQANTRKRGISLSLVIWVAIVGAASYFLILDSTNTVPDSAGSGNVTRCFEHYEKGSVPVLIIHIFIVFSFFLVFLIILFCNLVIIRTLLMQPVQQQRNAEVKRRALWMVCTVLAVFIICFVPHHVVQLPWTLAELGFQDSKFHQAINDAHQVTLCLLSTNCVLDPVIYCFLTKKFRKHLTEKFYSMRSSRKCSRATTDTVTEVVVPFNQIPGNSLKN

Structure (SMILES)	inhibition at 0.003 µM [%]
CCCOc1c(OCCSc2ncc[nH]2)cc([C@H]2CC[C@H](c3cc(OC)c(OC)c(OC)c3)O2)cc1S(=O)(=O)CC(C)O (relative stereo) [trans-2-[3-(2-Hydroxy-n-propylsulfonyl)-4-n-propoxy-5-{2-(2-imidazolylthio)ethoxy}phenyl]-5-(3,4,5-trimethoxyphenyl)tetrahydrofuran]	34
CCCOc1c(OCCCn2ccnc2)cc([C@H]2CC[C@H](c3cc(OC)c(OC)c(OC)c3)O2)cc1S(=O)(=O)CC(C)O (relative stereo) [trans-2-[3-(2-Hydroxy-n-propylsulfonyl)-4-n-propoxy-5-{3-(1-imidazolyl)propoxy}phenyl]-5-(3,4,5-trimethoxyphenyl)tetrahydrofuran]	41
CCCOc1c(OCCCSc2nc[nH]n2)cc([C@@H]2CC[C@@H](c3cc(OC)c(OC)c(OC)c3)O2)cc1S(=O)(=O)CC(C)O (relative stereo) [trans-2-[3-(2-Hydroxy-n-propylsulfonyl)-4-n-propoxy-5-{3-(1H-1,2,4-triazolyl-3-thio)propoxy}phenyl]-5-(3,4,5-trimethoxyphenyl)tetrahydrofuran]	61
CCCOc1c(OCCCSc2ncc[nH]2)cc([C@H]2CC[C@H](c3cc(OC)c(OC)c(OC)c3)O2)cc1S(=O)(=O)CC(C)O (relative stereo) [trans-2-[3-(2-Hydroxy-n-propylsulfonyl)-4-n-propoxy-5-{3-(2-imidazolylthio)n-propoxy}phenyl]-5-(3,4,5-trimethoxyphenyl)tetrahydrofuran]	46
CCCOc1c(OCCCCn2ccnc2)cc([C@H]2CC[C@H](c3cc(OC)c(OC)c(OC)c3)O2)cc1S(=O)(=O)CC(C)O (relative stereo) [trans-2-[3-(2-Hydroxy-n-propylsulfonyl)-4-n-propoxy-5-{4-(1-imidazolyl)butoxy}phenyl]-5-(3,4,5-trimethoxyphenyl)tetrahydrofuran]	43
CCCOc1c(OCCn2ccnc2)cc([C@@H]2CC[C@@H](c3cc(OC)c(OC)c(OC)c3)O2)cc1S(=O)(=O)CC(C)O (relative stereo) [trans-2-[3-(2-Hydroxy-n-propylsulfonyl-4-n-propoxy-5-{2-(1-imidazolyl)ethoxy}phenyl]-5-(3,4,5-trimethoxyphenyl)tetrahydrofuran]	48
CCCOc1c(OCCN2CCOCC2)cc([C@@H]2CC[C@@H](c3cc(OC)c(OC)c(OC)c3)O2)cc1S(=O)(=O)CC(C)O (relative stereo) [trans-2-[3-(2-Hydroxypropylsulfonyl)-4-n-propoxy-5-{2-(1-morpholino)-n-ethoxy}phenyl]-5-(3,4,5-trimethoxyphenyl)tetrahydrofuran]	20
CCCOc1cc([C@@H]2CC[C@@H](c3cc(OC)c(OC)c(OC)c3)O2)cc(S(=O)(=O)CCN2CCOCC2)c1OCCC (relative stereo) [trans-2-[3-(2-N-Morpholinoethylsulfonyl)-4,5-di-n-propoxyphenyl]-5-(3,4,5-trimethoxyphenyl)tetrahydrofuran]	17

Further lines, results first:

inhibition at 0.003 µM [%]	Structure (SMILES)
34	CCCOc1c(OCCN2CCNCC2)cc([C@@H]2CC[C@@H](c3cc(OC)c(OC)c(OC)c3)O2)cc1S(=O)(=O)CC(C)=O (relative stereo)
18	CCCOc1cc([C@@H]2CC[C@@H](c3cc(OC)c(OC)c(OC)c3)O2)cc(S(=O)(=O)CCN2CCCC2)c1OCCC (relative stereo) [trans-2-[3-(2-N-Pyrrolidinylethylsulfonyl)-4,5-dipropoxyphenyl]-5-(3,4,5-trimethoxyphenyl) tetrahydrofuran]
25	CCCOc1c(OCCN2CCOCC2)cc([C@@H]2CC[C@@H](c3cc(OC)c(OC)c(OC)c3)O2)cc1S(=O)(=O)CC(C)=O (relative stereo) [trans-2-[3-(2-Oxopropylsulfonyl)-4-n-propoxy-5-{2-(1-morpholino)-ethoxy}phenyl]-5-(3,4,5-trimethoxyphenyl)tetrahydrofuran]

Source: patent US5114961A, “2,5-diaryl tetrahydrofurans and analogs thereof as PAF antagonists” (Merck & Co., Inc., priority 1990, dated 1992)
